Laboratory results: patent US12503475B2 (Centessa Pharmaceuticals (UK) Limited, priority 2020, dated 2025)
Where two headings read alike, the source gives them in different places.

Target: T1, human orexin type 2 receptor (hOX2R) (Homo sapiens, UniProt O43614)
T1 construct: expressed in transfected cells
T1 sequence (O43614 1-444): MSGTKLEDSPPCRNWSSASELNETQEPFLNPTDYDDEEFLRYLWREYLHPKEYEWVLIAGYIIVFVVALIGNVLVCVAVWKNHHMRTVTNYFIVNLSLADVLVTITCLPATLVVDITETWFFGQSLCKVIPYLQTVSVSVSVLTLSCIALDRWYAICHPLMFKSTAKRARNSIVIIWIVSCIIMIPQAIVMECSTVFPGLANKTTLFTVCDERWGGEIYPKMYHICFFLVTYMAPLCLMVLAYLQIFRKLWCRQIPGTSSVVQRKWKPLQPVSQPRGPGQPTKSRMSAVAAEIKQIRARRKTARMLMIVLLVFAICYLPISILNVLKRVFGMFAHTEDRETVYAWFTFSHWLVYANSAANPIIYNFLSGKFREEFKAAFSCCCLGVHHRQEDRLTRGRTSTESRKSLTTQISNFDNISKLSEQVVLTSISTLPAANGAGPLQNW
Assay: Measurement of orexin type 2 receptor agonist activity (FLIPR calcium fluorescence)
Format: cell-based
Details: for EC50: read-out: hOx2 pEC50 (converted); for Emax: CHO, read-out: hOx2 Emax (%)
Procedure, shortened: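 Agonism was read as fluorescence in cells stably expressing human OX2R. E. is the response at 10 μM relative to orexin A as full agonist (100%).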

[1] = CHO cells expressing hOX2R, FLIPR calcium fluorescence

Row | Compound | EC50 [1] [nM] | Emax [1] [%] | Emax [%]
1 | [2H]c1c([2H])c([2H])c(-c2cccc(C[C@H]3[C@@H](NS(=O)(=O)C(F)F)C4(CC4)CN3C(=O)[C@H]3CCO3)c2F)c([2H])c1[2H] [Compound 173, 1,1-difluoro-N-((6S,7S)-6-((2-fluoro-[1,1′-biphenyl]-3-yl-2′,3′,4′,5′,6′-d5)methyl)-5-((R)-oxetane-2-carbonyl)-5-azaspiro[2.4]heptan-7-yl)methanesulfonamide] | 1 to 10 | 90 to 100 | –
2 | COCCOCCS(=O)(=O)N[C@@H]1[C@H](Cc2cccc(-c3ccccc3)c2)N(C(=O)[C@H]2CCO2)CC12CC2 [Compound 74, N-((6S,7S)-6-([1,1′-biphenyl]-3-ylmethyl)-5-((R)-oxetane-2-carbonyl)-5-azaspiro[2.4]heptan-7-yl)-2-(2-methoxyethoxy)ethane-1-sulfonamide] | 10 to 100 | 90 to 100 | –
3 | O=C(NCC(F)F)N1CC2(CC2)[C@H](NS(=O)(=O)C(F)F)[C@@H]1Cc1cccc(-c2ccccc2)c1F [Compound 165, (6S,7S)-N-(2,2-difluoroethyl)-7-((difluoromethyl)sulfonamido)-6-((2-fluoro-[1,1′-biphenyl]-3-yl)methyl)-5-azaspiro[2.4]heptane-5-carboxamide] | 1 to 10 | 90 to 100 | –
4 | CN(C)S(=O)(=O)NC1C(Cc2cccc(-c3ccccc3)c2F)N(C(=O)C2CCC2)CC12CC2 (racemic) [Compound 92, N-(5-(cyclobutanecarbonyl)-6-((2-fluoro-[1,1′-biphenyl]-3-yl)methyl)-5-azaspiro[2.4]heptan-7-yl)-N,N-dimethylsulfuric diamide] | 1 to 10 | 90 to 100 | –
5 | CC(C)C(=O)N1CC2(CC2)[C@H](NS(C)(=O)=O)[C@@H]1Cc1cccc(-c2ccccc2F)c1 (racemic) [Compound 297] | 1 to 10 | 90 to 100 | –
6 | O=C([C@H]1C[C@@H](F)C1)N1CC2(CC2)[C@H](NS(=O)(=O)C(F)F)[C@@H]1Cc1cccc(-c2ccccc2)c1F [Compound 201, 1,1-difluoro-N-((6S,7S)-6-((2-fluoro-[1,1′-biphenyl]-3-yl)methyl)-5-((1s,3s)-3-fluorocyclobutane-1-carbonyl)-5-azaspiro[2.4]heptan-7-yl)methanesulfonamide] | 1 to 10 | 90 to 100 | –
7 | CS(=O)(=O)N[C@@H]1[C@H](Cc2cccc(-c3ccccc3)c2F)N(C(=O)NC2CC(F)(F)C2)CC12CC2 [Compound 83, (6S,7S)-N-(3,3-difluorocyclobutyl)-6-((2-fluoro-[1,1′-biphenyl]-3-yl)methyl)-7-(methylsulfonamido)-5-azaspiro[2.4]heptane-5-carboxamide] | 10 to 100 | 90 to 100 | –
8 | O=C(C1CCC1)N1CC2(CC2)C(NS(=O)(=O)CF)C1Cc1cccc(-c2ccccc2)c1F (racemic) [Compound 106, N-(5-5(cyclobutanecarbonyl)-6-((2-fluoro-[1,1′-biphenyl]-3-yl)methyl)-5-azaspiro[2.4]heptan-7-yl)-1-fluoromethanesulfonamide] | 0.0794 to 1 | 90 to 100 | –
9 | COC1CN(C(=O)N2CC3(CC3)C(NS(C)(=O)=O)C2Cc2cccc(-c3ccccc3)c2F)C1 (racemic) [Compound 46, N-(6-((2-fluoro-[1,1′-biphenyl]-3-yl)methyl)-5-(3-methoxyazetidine-1-carbonyl)-5-azaspiro[2.4]heptan-7-yl)methanesulfonamide] | 10 to 100 | 90 to 100 | –
10 | C[C@H](F)C(=O)N1CC2(CC2)[C@H](NS(=O)(=O)C(F)F)[C@@H]1Cc1cccc(-c2ccccc2)c1F [Compound 160, 1,1-difluoro-N-((6S,7S)-6-((2-fluoro-[1,1′-biphenyl]-3-yl)methyl)-5-((S)-2-fluoropropanoyl)-5-azaspiro[2.4]heptan-7-yl)methanesulfonamide] | 0.0794 to 1 | 90 to 100 | –
11 | CS(=O)(=O)N[C@@H]1[C@H](Cc2cccc(-c3ccccc3)c2)N(C(=O)[C@H](O)C(F)(F)F)CC12CC2 [Compound 299, N-((6S,7S)-6-([1,1′-biphenyl]-3-ylmethyl)-5-((S)-3,3,3-trifluoro-2-hydroxypropanoyl)-5-azaspiro[2.4]heptan-7-yl)methanesulfonamide] | 10 to 100 | 90 to 100 | –
12 | [2H]C([2H])([2H])Oc1c(C[C@H]2[C@@H](NS(=O)(=O)CF)C3(CC3)CN2C(=O)NC([2H])([2H])C([2H])([2H])[2H])cccc1-c1ccccc1 [Compound 397, (6S,7S)-N-(ethyl-d5)-7-((fluoromethyl)sulfonamido)-6-((2-(methoxy-d3)-[1,1′-biphenyl]-3-yl)methyl)-5-azaspiro[2.4]heptane-5-carboxamide] | 1 to 10 | 80 to 90 | –
13 | CS(=O)(=O)N[C@@H]1[C@H](Cc2cccc(-c3ccccc3)c2F)N(C(=O)N2CC[C@H]2CF)CC12CC2 [Compound 80, N-((6S,7S)-6-((2-fluoro-[1,1′-biphenyl]-3-yl)methyl)-5-((S)-2-(fluoromethyl)azetidine-1-carbonyl)-5-azaspiro[2.4]heptan-7-yl)methanesulfonamide] | 0.0794 to 1 | 90 to 100 | –
14 | COC1(C(=O)N2CC3(CC3)[C@H](NS(C)(=O)=O)[C@@H]2Cc2cccc(-c3ccccc3)c2)CC1 [Compound 60, N-((6S,7S)-6-([1,1′-biphenyl]-3-ylmethyl)-5-(1-methoxycyclopropane-1-carbonyl)-5-azaspiro[2.4]heptan-7-yl)methanesulfonamide] | 10 to 100 | 80 to 90 | –
15 | O=C([C@H]1CCO1)N1CC2(CC2)[C@H](NS(=O)(=O)CF)[C@@H]1Cc1cccc(-c2ccccc2)c1F [Compound 93, 1-fluoro-N-((6S,7S)-6-((2-fluoro-[1,1′-biphenyl]-3-yl)methyl)-5-((R)-oxetane-2-carbonyl)-5-azaspiro[2.4]heptan-7-yl)methanesulfonamide] | 0.0794 to 1 | 90 to 100 | –
16 | O=C([C@H]1CCO1)N1CC2(CC2)[C@H](NS(=O)(=O)C2CC2)[C@@H]1Cc1cccc(-c2ccccc2)c1F [Compound 69, N-((6S 7S)-6-((2-fluoro-[1,1′-biphenyl]-3-yl)methyl)-5-((R)-oxetane-2-carbonyl)-5-azaspiro[2.4]heptan-7-yl)cyclopropanesulfonamide] | 0.0794 to 1 | 90 to 100 | –
17 | C[C@H](CF)NC(=O)N1CC2(CC2)[C@H](NS(=O)(=O)C(F)F)[C@@H]1Cc1cc(F)cc(-c2ccccc2)c1F [Compound 388, (6S,7S)-6-((2,5-difluoro-[1,1′-biphenyl]-3-yl)methyl)-7-((difluoromethyl)sulfonamido)-N-((R)-1-fluoropropan-2-yl)-5-azaspiro[2.4]heptane-5-carboxamide] | 1 to 10 | 90 to 100 | –
18 | CS(=O)(=O)N[C@@H]1[C@H](Cc2cccc(-c3ccccc3)c2F)N(C(=O)NCC(F)(F)F)CC12CC2 [Compound 99, (6S,7S)-6-((2-fluoro-[1,1′-biphenyl]-3-yl)methyl)-7-(methylsulfonamido)-N-(2,2,2-trifluoroethyl)-5-azaspiro[2.4]heptane-5-carboxamide] | 1 to 10 | – | 90 to 100
19 | O=C(NCC(F)(F)F)N1CC2(CC2)[C@H](NS(=O)(=O)CF)[C@@H]1Cc1cccc(-c2ccccc2)c1F [Compound 211, (6S,7S)-6-((2-fluoro-[1,1′-biphenyl]-3-yl)methyl)-7-((fluoromethyl)sulfonamido)-N-(2,2,2-trifluoroethyl)-5-azaspiro[2.4]heptane-5-carboxamide] | 1 to 10 | 90 to 100 | –
20 | C[C@H](F)S(=O)(=O)N[C@@H]1[C@H](Cc2cccc(-c3ccccc3)c2F)N(C(=O)[C@H]2CCO2)CC12CC2 [Compound 194, (R)-1-fluoro-N-((6S,7S)-6-((2-fluoro-[1,1′-biphenyl]-3-yl)methyl)-5-((R)-oxetane-2-carbonyl)-5-azaspiro[2.4]heptan-7-yl)ethane-1-sulfonamide] | 1 to 10 | 90 to 100 | –
21 | CS(=O)(=O)NC1C(Cc2cccc(-c3ccccc3)c2)N(C(=O)[C@H]2C[C@H](F)C2)CC12CC2 (mixture of isomers) [Compound 49, N-(6-([1,1′-biphenyl]-3-ylmethyl)-5-((1r,3r)-3-fluorocyclobutane-1-carbonyl)-5-azaspiro[2.4]heptan-7-yl)methanesulfonamide] | 1 to 10 | 90 to 100 | –
22 | O=C([C@H]1CCO1)N1CC2(CC2)[C@H](NS(=O)(=O)CF)[C@@H]1Cc1cccc(-c2cccc(C(F)(F)F)c2)c1F [Compound 197, 1-fluoro-N-((6S,7S)-6-((2-fluoro-3′-(trifluoromethyl)-[1,1′-biphenyl]-3-yl)methyl)-5-((R)-oxetane-2-carbonyl)-5-azaspiro[2.4]heptan-7-yl)methanesulfonamide] | 10 to 100 | 80 to 90 | –
23 | CS(=O)(=O)NC1C(Cc2cccc(-c3cccc(F)c3)c2)N(C(=O)C2(O)CCC2)CC12CC2 (racemic) [Compound 51, N-(6-((3′-fluoro-[1,1′-biphenyl]-3-yl)methyl)-5-(1-hydroxycyclobutane-1-carbonyl)-5-zaspiro[2.4]heptan-7-yl)methanesulfonamide] | 1 to 10 | 90 to 100 | –
24 | CS(=O)(=O)N[C@@H]1[C@H](Cc2cccc(-c3ccccc3)c2F)N(C(=O)[C@H](O)C(F)F)CC12CC2 [Compound 351, N-((6S,7S)-5-((S)-3,3-difluoro-2-hydroxypropanoyl)-6-((2-fluoro-[1,1′-biphenyl]-3-yl)methyl)-5-azaspiro[2.4]heptan-7-yl)methanesulfonamide] | 10 to 100 | 90 to 100 | –
